Results published in patent US8859225B2, “Systems and methods of voltage-gated ion channel assays” (The Charles Stark Draper Laboratory, Inc., priority 2006, dated 2014).

Tested on: cardiac cell potassium channels
Test: potassium ion-selective optical ion sensor fluorescence assay of electrically paced cardiac myocyte cells (hERG screening)
Format: cell-based
Conditions: 2.0 μM Haloperidol; myocyte cells paced at 1.0 Hz; FIG. 10D in comparison to FIG. 10B
Excerpt: In one particular example, a cell assay system built in accordance with principles of the invention can be used to conduct hERG screening assays. The hERG gene regulates the activity of potassium ion channels in cardiac myocyte cells. In a functioning heart, electrical voltages are generated by modified myocytes in the sinoatrial and atrioventricular nodes (pacemaking nodes). Such voltages are propagated through the heart by the action of various voltage-gated ion channels that alter the voltage gradients across cardiac cell membranes by exchanging sodium, calcium, and potassium ions across the cell membrane. Various agents are known to interfere with the hERG gene, or otherwise block potassium channel operation, resulting in arrhythmia and potentially heart failure. […]
To test for potassium channel interference, cardiac myocyte cells are provided in a monolayer adhered to a biological sample holder. […] As potassium ions are passed into and out of the myocytes by potassium channels, the fluorescence of the potassium selective optical ion sensor varies in a detectable fashion.
FIGS. 10A and 10B are graphs charting the intensity of potassium ion-selective optical ion sensor fluorescence monitoring the activity of myocyte cells in a biological sample holder. […] The graph of FIG. 10A includes normalized raw fluorescence measurements, both observed and filtered. […]

With O=C(CCCN1CCC(O)(c2ccc(Cl)cc2)CC1)c1ccc(F)cc1 [Haloperidol] the “reduction of intensity of fluorescence oscillations at 1.0 Hz (change of extracellular potassium concentration per beat)” value was 30%.
